Drawing on patent US12344597B2, “Alkoxy-substituted pyridinyl derivatives as LPA1 receptor antagonists and their use in the treatment of fibrosis” (IDORSIA PHARMACEUTICALS LTD, priority 2018, dated 2025), this text covers IC50 for 32 compounds.

The term pIC50 denotes the negative decadic logarithm of the IC50, by convention in mol/L. High values mean a low IC50, low ones a high IC50.

The assay addresses human LPA1 receptor (Homo sapiens (Human), UniProt Q92633). Kind of assay: Beta-arrestin recruitment assay to determine IC50 values for human LPAR1. It counts as cell-based. Conditions: antagonist mode, Tango EDG2-bla U2OS cells, LPA 18:1 500 nM final. The essentials: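 Tango EDG2-bla U2OS cells: LPA-driven beta-arrestin/TEV protease recruitment releases Gal4-VP16, inducing beta-lactamase reporter read with live-cell substrate. Cells seeded 20 h at 37 °C beforehand. IC50 is antagonist concentration inhibiting 50% of maximal response.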
Background: Arrestin recruitment assays detect the binding of arrestin to an activated receptor.

pIC50: −log10 of the molar value.

Sequence of human LPA1 receptor (Q92633 whole entry, the tested form may be a part): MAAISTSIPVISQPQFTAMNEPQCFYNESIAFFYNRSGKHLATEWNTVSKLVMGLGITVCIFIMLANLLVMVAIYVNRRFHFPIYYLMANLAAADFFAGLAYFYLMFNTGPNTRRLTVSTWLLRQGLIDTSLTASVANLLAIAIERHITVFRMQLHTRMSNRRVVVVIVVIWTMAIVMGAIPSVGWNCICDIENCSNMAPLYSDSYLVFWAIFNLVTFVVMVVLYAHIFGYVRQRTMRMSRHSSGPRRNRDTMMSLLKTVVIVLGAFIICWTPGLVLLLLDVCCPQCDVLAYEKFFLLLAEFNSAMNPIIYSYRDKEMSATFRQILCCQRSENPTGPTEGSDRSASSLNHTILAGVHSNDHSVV

Turning to `Cc1ccc(NC(=O)C2(c3ccccc3C(C)C)CN(c3cc(F)ccn3)C2)c(OC(F)F)n1` [Ex 18-18, N-(2-(difluoromethoxy)-6-methylpyridin-3-yl)-1-(4-fluoropyridin-2-yl)-3-(2-isopropylphenyl)azetidine-3-carboxamide], the pIC50 was 9.00.

`Cc1ccc(NC(=O)C2(c3ccccc3C(C)C)CN(c3ccncc3F)C2)c(OC(F)F)n1` [Ex 18-19, N-(2-(difluoromethoxy)-6-methylpyridin-3-yl)-1-(3-fluoropyridin-4-yl)-3-(2-isopropylphenyl)azetidine-3-carboxamide] gave a pIC50 of 8.70.

In the case of `Cc1ccc(NC(=O)C2(c3ccccc3C(C)C)CN(c3ncncc3F)C2)c(OC(F)F)n1` [Ex 18-20, N-(2-(difluoromethoxy)-6-methylpyridin-3-yl)-1-(5-fluoropyrimidin-4-yl)-3-(2-isopropylphenyl)azetidine-3-carboxamide], the pIC50 is 8.70.

The compound `CC(C)c1ccccc1C1(C(=O)Nc2cccnc2OC(F)F)CN(c2ncncc2F)C1` [Ex 18-21, N-(2-(difluoromethoxy)pyridin-3-yl)-1-(5-fluoropyrimidin-4-yl)-3-(2-isopropylphenyl)azetidine-3-carboxamide] had a pIC50 of 8.00.

`Cc1ccc(NC(=O)C2(c3ccccc3C(C)C)CN(c3ccc(C#N)cn3)C2)c(OC(F)F)n1` [Ex 18-22, 1-(5-cyanopyridin-2-yl)-N-(2-(difluoromethoxy)-6-methylpyridin-3-yl)-3-(2-isopropylphenyl)azetidine-3-carboxamide] showed a negative-log IC50 (pIC50) of 9.00.

`CC(C)c1ccccc1C1(C(=O)Nc2cccnc2OC(F)F)CN(c2ccc(C#N)cn2)C1` [Ex 18-23, 1-(5-cyanopyridin-2-yl)-N-(2-(difluoromethoxy)pyridin-3-yl)-3-(2-isopropylphenyl)azetidine-3-carboxamide] showed a pIC50 of 8.40. Against the preceding compound, the pIC50 is 0.60 log units lower.

Turning to `Cc1ccc(NC(=O)C2(c3ccccc3C(C)C)CN(c3ncc(C#N)cn3)C2)c(OC(F)F)n1` [Ex 18-24, 1-(5-cyanopyrimidin-2-yl)-N-(2-(difluoromethoxy)-6-methylpyridin-3-yl)-3-(2-isopropylphenyl)azetidine-3-carboxamide], the pIC50 is 8.70.

With `CC(C)c1ccccc1C1(C(=O)Nc2cccnc2OC(F)F)CN(c2ncc(C#N)cn2)C1` [Ex 18-25, 1-(5-cyanopyrimidin-2-yl)-N-(2-(difluoromethoxy)pyridin-3-yl)-3-(2-isopropylphenyl)azetidine-3-carboxamide], the pIC50 is 8.30.

The compound `Cc1cc(Cl)nc(N2CC(C(=O)Nc3ccc(C)nc3OC(F)F)(c3ccccc3C(C)C)C2)n1` [Ex 18-26, 1-(4-chloro-6-methylpyrimidin-2-yl)-N-(2-(difluoromethoxy)-6-methylpyridin-3-yl)-3-(2-isopropylphenyl)azetidine-3-carboxamide] showed a pIC50 of 7.32.

With `CCOC(=O)c1coc(N2CC(C(=O)Nc3ccc(C)nc3OC(F)F)(c3ccccc3C(C)C)C2)n1` [Ex 18-27, ethyl 2-(3-((2-(difluoromethoxy)-6-methylpyridin-3-yl)carbamoyl)-3-(2-isopropylphenyl)azetidin-1-yl)oxazole-4-carboxylate], the pIC50 is 8.00.

`Cc1ccc(NC(=O)C2(c3ccccc3C(C)C)CN(c3nc(C(=O)O)co3)C2)c(OC(F)F)n1` [Ex 18-28, 2-(3-((2-(difluoromethoxy)-6-methylpyridin-3-yl)carbamoyl)-3-(2-isopropylphenyl)azetidin-1-yl)oxazole-4-carboxylic acid] had a pIC50 of 8.22. Compared with the last compound, the pIC50 is 0.22 log units higher.

For `CCOC(=O)c1coc(N2CC(C(=O)Nc3cccnc3OC(F)F)(c3ccccc3C(C)C)C2)n1` [Ex 18-29, ethyl 2-(3-((2-(difluoromethoxy)pyridin-3-yl)carbamoyl)-3-(2-isopropylphenyl)azetidin-1-yl)oxazole-4-carboxylate], the pIC50 was 7.15.

`CC(C)c1ccccc1C1(C(=O)Nc2cccnc2OC(F)F)CN(c2nc(C(=O)O)co2)C1` [Ex 18-30, 2-(3-((2-(difluoromethoxy)pyridin-3-yl)carbamoyl)-3-(2-isopropylphenyl)azetidin-1-yl)oxazole-4-carboxylic acid] gave a negative logarithm of the IC50 (pIC50) of 7.39. Against the preceding compound, the pIC50 is 0.24 log units higher.

Regarding `CCOC(=O)c1cnc(N2CC(C(=O)Nc3ccc(C)nc3OC(F)F)(c3ccccc3C(C)C)C2)o1` [Ex 18-31, ethyl 2-(3-((2-(difluoromethoxy)-6-methylpyridin-3-yl)carbamoyl)-3-(2-isopropylphenyl)azetidin-1-yl)oxazole-5-carboxylate], the pIC50 was 7.70. Against the preceding compound, the pIC50 is 0.31 log units higher.

The compound `Cc1ccc(NC(=O)C2(c3ccccc3C(C)C)CN(c3ncc(C(=O)O)o3)C2)c(OC(F)F)n1` [Ex 18-32, 2-(3-((2-(difluoromethoxy)-6-methylpyridin-3-yl)carbamoyl)-3-(2-isopropylphenyl)azetidin-1-yl)oxazole-5-carboxylic acid] gave a pIC50 of 7.47.

Regarding `Cc1ccc(NC(=O)C2(c3ccccc3C(C)C)CN(c3ncc(F)cn3)C2)c(OC(F)F)n1` [Ex 18-33, N-(2-(difluoromethoxy)-6-methylpyridin-3-yl)-1-(5-fluoropyrimidin-2-yl)-3-(2-isopropylphenyl)azetidine-3-carboxamide], the pIC50 is 8.52.

Consider `Cc1ccc(NC(=O)C2(c3ccccc3C(C)C)CN(c3ccnc(C)n3)C2)c(OC(F)F)n1` [Ex 18-34, N-(2-(difluoromethoxy)-6-methylpyridin-3-yl)-3-(2-isopropylphenyl)-1-(2-methylpyrimidin-4-yl)azetidine-3-carboxamide], for which the pIC50 is 8.52.

Take `COC(=O)c1cnc(N2CC(C(=O)Nc3ccc(C)nc3OC(F)F)(c3ccccc3C(C)C)C2)n1C` [Ex 18-35, methyl 2-(3-((2-(difluoromethoxy)-6-methylpyridin-3-yl)carbamoyl)-3-(2-isopropylphenyl)azetidin-1-yl)-1-methyl-1H-imidazole-5-carboxylate]: the pIC50 is 7.52.

For the compound `Cc1ccc(NC(=O)C2(c3ccccc3C(C)C)CN(c3ncc(C(=O)O)n3C)C2)c(OC(F)F)n1` [Ex 18-36, 2-(3-((2-(difluoromethoxy)-6-methylpyridin-3-yl)carbamoyl)-3-(2-isopropylphenyl)azetidin-1-yl)-1-methyl-1H-imidazole-5-carboxylic acid], the pIC50 was 7.80.

With `Cc1ccc(NC(=O)C2(c3ccccc3C(C)C)CN(C3=NC(=O)CO3)C2)c(OC(F)F)n1` [Ex 19, N-(2-(difluoromethoxy)-6-methylpyridin-3-yl)-3-(2-isopropylphenyl)-1-(4-oxo-4,5-dihydrooxazol-2-yl)azetidine-3-carboxamide], the negative-log IC50 (pIC50) was 8.40.

For `Cc1ccc(NC(=O)C2(c3ccccc3C(C)C)CN(c3nnn[nH]3)C2)c(OC(F)F)n1` [Ex 20, N-(2-(difluoromethoxy)-6-methylpyridin-3-yl)-3-(2-isopropylphenyl)-1-(1H-tetrazol-5-yl)azetidine-3-carboxamide], the pIC50 was 7.43.

In turn, `Cc1ccc(NC(=O)C2(c3ccccc3C(C)C)CN(c3noc(O)n3)C2)c(OC(F)F)n1` [Ex 21, N-(2-(difluoromethoxy)-6-methylpyridin-3-yl)-1-(5-hydroxy-1,2,4-oxadiazol-3-yl)-3-(2-isopropylphenyl)azetidine-3-carboxamide] showed a pIC50 of 7.92. This pIC50 lies 0.49 log units higher than the previous one.

Compound `Cc1ccc(NC(=O)C2(c3ccccc3C3CC3)CNC2)c(OC(F)F)n1` [Ex 23, 3-(2-cyclopropylphenyl)-N-(2-(difluoromethoxy)-6-methylpyridin-3-yl)azetidine-3-carboxamide] showed a pIC50 of 6.18.

`Cc1ccc(NC(=O)C2(c3ccccc3C3CCC3)CNC2)c(OC(F)F)n1` [Ex 24, 3-(2-cyclobutylphenyl)-N-(2-(difluoromethoxy)-6-methylpyridin-3-yl)azetidine-3-carboxamide] showed a pIC50 of 7.51. This pIC50 is 1.33 log units higher than that of the compound before.

Consider `Cc1ccc(NC(=O)C2(c3ccccc3C3CCCC3)CNC2)c(OC(F)F)n1` [Ex 25, 3-(2-cyclopentylphenyl)-N-(2-(difluoromethoxy)-6-methylpyridin-3-yl)azetidine-3-carboxamide], for which the pIC50 was 8.07.

As to `Cc1ccc(NC(=O)C2(c3ccccc3C3=CCCC3)CNC2)c(OC(F)F)n1` [Ex 26, 3-(2-(cyclopent-1-en-1-yl)phenyl)-N-(2-(difluoromethoxy)-6-methylpyridin-3-yl)azetidine-3-carboxamide], the pIC50 is 6.63.

`Cc1ccc(NC(=O)C2(c3ccccc3C3CCCCC3)CNC2)c(OC(F)F)n1` [Ex 27, 3-(2-cyclohexylphenyl)-N-(2-(difluoromethoxy)-6-methylpyridin-3-yl)azetidine-3-carboxamide] gave a pIC50 of 7.89.

`Cc1ccc(NC(=O)C2(c3ccccc3C3CCOCC3)CNC2)c(OC(F)F)n1` [Ex 28, N-(2-(difluoromethoxy)-6-methylpyridin-3-yl)-3-(2-(tetrahydro-2H-pyran-4-yl)phenyl)azetidine-3-carboxamide] showed a pIC50 of 7.64.

For the compound `CCCc1ccccc1C1(C(=O)Nc2ccc(C)nc2OC(F)F)CNC1` [Ex 29, N-(2-(difluoromethoxy)-6-methylpyridin-3-yl)-3-(2-propylphenyl)azetidine-3-carboxamide], the pIC50 was 6.38.

For the compound `Cc1ccc(NC(=O)C2(c3ccccc3C3CCOCC3)CN(S(N)(=O)=O)C2)c(OC(F)F)n1` [Ex 30, N-(2-(difluoromethoxy)-6-methylpyridin-3-yl)-1-sulfamoyl-3-(2-(tetrahydro-2H-pyran-4-yl)phenyl)azetidine-3-carboxamide], the negative-log IC50 (pIC50) was 7.48.

The compound `Cc1ccc(NC(=O)C2(c3ccccc3C3CC3)CN(C(=O)CC(C)(C)C(=O)O)C2)c(OC(F)F)n1` [Ex 31-1, 4-(3-(2-cyclopropylphenyl)-3-((2-(difluoromethoxy)-6-methylpyridin-3-yl)carbamoyl)azetidin-1-yl)-2,2-dimethyl-4-oxobutanoic acid] showed a pIC50 of 7.72.

Compound `Cc1ccc(NC(=O)C2(c3ccccc3C3CCC3)CN(C(=O)CC(C)(C)C(=O)O)C2)c(OC(F)F)n1` [Ex 31-2, 4-(3-(2-cyclobutylphenyl)-3-((2-(difluoromethoxy)-6-methylpyridin-3-yl)carbamoyl)azetidin-1-yl)-2,2-dimethyl-4-oxobutanoic acid] had a pIC50 of 8.22.
